Data on 8 compounds can be found in ChEMBL document CHEMBL4190388, “Discovery and Optimization of Indolyl-Containing 4-Hydroxy-2-Pyridone Type II DNA Topoisomerase Inhibitors Active against Multidrug Resistant Gram-negative Bacteria” (J Med Chem, 2018).

Assay [1] has as its system Acinetobacter baumannii. The assay is described as follows: Antibacterial activity against fluoroquinolone resistant Acinetobacter baumannii isolate MMX2240 by CLSI M100-S17 protocol based method. Type of assay: functional.
Assay [2] relates to Acinetobacter baumannii. The assay is described as follows: Antibacterial activity against wild type Acinetobacter baumannii ATCC BAA-747 by CLSI M100-S17 protocol based method. Format: functional.
The test system of another assay is Klebsiella pneumoniae. The experiment in a line: Antibacterial activity against wild type Klebsiella pneumoniae ATCC 35657 by CLSI M100-S17 protocol based method. Format: functional.
Assay [3] has as its system Escherichia coli. The assay is described as follows: Selectivity ratio of MIC for wild type Escherichia coli ATCC 25922 in presence of HSA to MIC for wild type Escherichia coli ATCC 25922. Type of assay: functional.
Assay [4] deals with Escherichia coli. The experiment in a line: Antibacterial activity against quinolone resistance Escherichia coli isolate ELZ4251 harboring gyrA/parC mutant by CLSI M100-S17 protocol based method. Type of assay: functional.
Assay [5] deals with Escherichia coli. The experiment in a line: Antibacterial activity against wild type Escherichia coli ATCC 25922 in presence of HSA by CLSI M100-S17 protocol based method. Type of assay: functional.
For assay [6], the system named is Escherichia coli. The experiment in a line: Antibacterial activity against wild type Escherichia coli ATCC 25922 by CLSI M100-S17 protocol based method. Format: functional.
Assay [7] has as its system Escherichia coli. The assay is described as follows: Antibacterial activity against fluoroquinolone resistant Escherichia coli SKM18 by CLSI M100-S17 protocol based method. Format: functional.
Assay [8] can be described thus: Inhibition of His tagged Escherichia coli ATCC 25922 DNA gyrase A expressed in Escherichia coli BL21 (DE3) pLysS cells assessed as reduction in enzyme-mediated supercoiling of relaxed plasmid DNA pNO1 after 30 mins in presence of biotinylated TFO1 by fluorescence assay.
A short description of assay [9]: Inhibition of Escherichia coli DNA topoisomerase 4 assessed as reduction in decatenation activity using kinetoplast concatenated DNA as substrate after 30 mins by picogreen dye based fluorescence assay.

In brackets after ≈: the same amount, converted by molar mass.

As to `CNCc1cc2cc3c(cc2n1C)SCCc1c-3[nH]c(=O)c(C(=O)O)c1O`, the MIC against Acinetobacter baumannii [1] was 7.8 µg/mL (≈ 20.2 µM); against Acinetobacter baumannii [2], 3.9 µg/mL (≈ 10.1 µM); in the assay on Klebsiella pneumoniae it was 1 µg/mL (≈ 2.59 µM); with Escherichia coli [4] it was 1.6 µg/mL (≈ 4.15 µM); in the assay with Escherichia coli [5] it was 7.8 µg/mL; in the assay on Escherichia coli [6] it was 1 µg/mL (≈ 2.59 µM). Further, the MIC in the assay with Escherichia coli [7] is 0.49 µg/mL (≈ 1.27 µM). In addition, the Ratio in the assay with Escherichia coli [3] was 8 - 16.

On to `CNCc1cc2cc3c(cc2n1C)CCCc1c-3[nH]c(=O)c(C(=O)O)c1O`, for which the MIC was 1.6 µg/mL (≈ 4.35 µM) against Acinetobacter baumannii [1]; 1.6 µg/mL (≈ 4.35 µM) in the assay with Acinetobacter baumannii [2]; 0.39 µg/mL (≈ 1.06 µM) in the assay with Klebsiella pneumoniae; 0.8 µg/mL (≈ 2.18 µM) in the assay with Escherichia coli [4]; 3.1 µg/mL in the assay on Escherichia coli [5]; 0.39 µg/mL (≈ 1.06 µM) against Escherichia coli [6]. The compound also showed an MIC against Escherichia coli [7] of 0.39 µg/mL (≈ 1.06 µM). For the same compound, the IC50 in [8] was 0.1 µM; in assay [9] it was 3.7 µM. Further, the Ratio with Escherichia coli [3] is 4 - 16.

`CNCc1cc2c3c(ccc2n1C)-c1[nH]c(=O)c(C(=O)O)c(O)c1CCC3`: the IC50 worked out at 1 µM in assay [8] and 27.9 µM in [9]. For the same compound, the MIC is greater than 12.5 µg/mL against Escherichia coli [6] and 6.3 µg/mL (≈ 17.1 µM) in the assay with Escherichia coli [7].

In the case of `CCNCc1cc2cc3c(cc2n1C)CCCCc1c-3[nH]c(=O)c(C(=O)O)c1O`, the IC50 in [8] stood at 0.8 µM; in [9], 15.3 µM. In addition, the MIC against Escherichia coli [6] worked out at 0.78 µg/mL (≈ 1.97 µM); in the assay on Escherichia coli [7], 3.1 µg/mL (≈ 7.84 µM).

`CCc1c(-c2ccc3c(c2)cc(CN(C)C)n3C)[nH]c(=O)c(C(=O)O)c1O`: the MIC against Acinetobacter baumannii [1] stood at 3.1 µg/mL (≈ 8.39 µM); against Acinetobacter baumannii [2] it was 0.78 µg/mL (≈ 2.11 µM); against Klebsiella pneumoniae it was 0.78 µg/mL (≈ 2.11 µM); against Escherichia coli [4] it was 6.3 µg/mL (≈ 17.1 µM); with Escherichia coli [5], 3.1 µg/mL; against Escherichia coli [6], 0.39 µg/mL (≈ 1.06 µM). Further, 6.3 µg/mL (≈ 17.1 µM) was the least that counted as inhibitory in the assay on Escherichia coli [7] (MIC). In addition, the Ratio in the assay on Escherichia coli [3] was 2 - 4.

`CCNCc1cc2cc3c(cc2n1C)SCCc1c-3[nH]c(=O)c(C(=O)O)c1O`: the MIC is 3.9 µg/mL (≈ 9.76 µM) against Acinetobacter baumannii [1]; 3.9 µg/mL (≈ 9.76 µM) against Acinetobacter baumannii [2]; 1 µg/mL (≈ 2.5 µM) in the assay on Klebsiella pneumoniae; 1.6 µg/mL (≈ 4.01 µM) in the assay on Escherichia coli [4]; 15.6 µg/mL with Escherichia coli [5]; 1 µg/mL (≈ 2.5 µM) against Escherichia coli [6]. In the assay with Escherichia coli [7], this compound returned an MIC of 0.5 µg/mL (≈ 1.25 µM). Besides, the Ratio with Escherichia coli [3] is 8 - 16.

Consider `CCc1c(-c2ccc3c(c2)cc(C)n3C)[nH]c(=O)c(C(=O)O)c1O`, for which, in the assay with Escherichia coli [3], the Ratio was greater than 40. In addition, the MIC against Escherichia coli [4] is 62.5 µg/mL (≈ 192 µM); with Escherichia coli [5] it was greater than 62.5 µg/mL; with Escherichia coli [6], 1.6 µg/mL (≈ 4.9 µM); in the assay with Escherichia coli [7], greater than 62.5 µg/mL.

Consider `CCc1c(-c2ccc3c(ccn3C)c2)[nH]c(=O)c(C(=O)O)c1O`, for which the MIC against Acinetobacter baumannii [1] is 0.78 µg/mL (≈ 2.5 µM); against Acinetobacter baumannii [2], 0.78 µg/mL (≈ 2.5 µM); in the assay with Klebsiella pneumoniae, 3.1 µg/mL (≈ 9.93 µM); in the assay with Escherichia coli [4], 6.3 µg/mL (≈ 20.2 µM); in the assay on Escherichia coli [5] it was greater than 62.5 µg/mL; in the assay on Escherichia coli [6], 0.78 µg/mL (≈ 2.5 µM). Moreover, in the assay with Escherichia coli [7], the minimal inhibitory concentration (MIC) was determined as 3.1 µg/mL (≈ 9.93 µM). Besides, in the assay on Escherichia coli [3], the Ratio was greater than 40.
